The results in this text go back to article doi:10.1101/2022.02.23.481604v2 (biorxiv, 2022).

Counter-ions that a name gives are not always drawn.

Experiment in all cases: cAMP formation in membranes
(In general: Cyclic AMP is a second messenger, typically raised through Gs and lowered through Gi signalling.)

Data set [1] addresses mAC3 activated by Gsα (Q227L) (Homo sapiens, UniProt O60266). The data set is classed as biochemical.
The target of data set [2] is mAC7 activated by Gsα (Q227L) (Homo sapiens, UniProt P51828). The data set is classed as biochemical.
mAC7 activated by Gsα (Q227L), sequence (P63092 2-394 Q227L partner, one chain of several): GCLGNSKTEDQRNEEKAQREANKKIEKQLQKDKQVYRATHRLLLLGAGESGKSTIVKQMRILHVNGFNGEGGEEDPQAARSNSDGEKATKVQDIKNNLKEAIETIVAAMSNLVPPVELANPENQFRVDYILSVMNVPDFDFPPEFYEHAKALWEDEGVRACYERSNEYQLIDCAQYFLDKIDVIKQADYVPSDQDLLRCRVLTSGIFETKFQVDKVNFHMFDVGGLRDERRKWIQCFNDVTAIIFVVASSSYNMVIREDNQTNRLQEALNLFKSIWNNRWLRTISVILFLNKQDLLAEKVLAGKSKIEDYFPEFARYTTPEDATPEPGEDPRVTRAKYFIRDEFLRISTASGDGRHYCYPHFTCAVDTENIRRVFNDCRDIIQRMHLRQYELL
In data set [3] the target is mAC6 activated by Gsα (Q227L) (Homo sapiens, UniProt O43306). It counts as biochemical.
mAC6 activated by Gsα (Q227L), sequence (O43306 whole entry, stated change not applied): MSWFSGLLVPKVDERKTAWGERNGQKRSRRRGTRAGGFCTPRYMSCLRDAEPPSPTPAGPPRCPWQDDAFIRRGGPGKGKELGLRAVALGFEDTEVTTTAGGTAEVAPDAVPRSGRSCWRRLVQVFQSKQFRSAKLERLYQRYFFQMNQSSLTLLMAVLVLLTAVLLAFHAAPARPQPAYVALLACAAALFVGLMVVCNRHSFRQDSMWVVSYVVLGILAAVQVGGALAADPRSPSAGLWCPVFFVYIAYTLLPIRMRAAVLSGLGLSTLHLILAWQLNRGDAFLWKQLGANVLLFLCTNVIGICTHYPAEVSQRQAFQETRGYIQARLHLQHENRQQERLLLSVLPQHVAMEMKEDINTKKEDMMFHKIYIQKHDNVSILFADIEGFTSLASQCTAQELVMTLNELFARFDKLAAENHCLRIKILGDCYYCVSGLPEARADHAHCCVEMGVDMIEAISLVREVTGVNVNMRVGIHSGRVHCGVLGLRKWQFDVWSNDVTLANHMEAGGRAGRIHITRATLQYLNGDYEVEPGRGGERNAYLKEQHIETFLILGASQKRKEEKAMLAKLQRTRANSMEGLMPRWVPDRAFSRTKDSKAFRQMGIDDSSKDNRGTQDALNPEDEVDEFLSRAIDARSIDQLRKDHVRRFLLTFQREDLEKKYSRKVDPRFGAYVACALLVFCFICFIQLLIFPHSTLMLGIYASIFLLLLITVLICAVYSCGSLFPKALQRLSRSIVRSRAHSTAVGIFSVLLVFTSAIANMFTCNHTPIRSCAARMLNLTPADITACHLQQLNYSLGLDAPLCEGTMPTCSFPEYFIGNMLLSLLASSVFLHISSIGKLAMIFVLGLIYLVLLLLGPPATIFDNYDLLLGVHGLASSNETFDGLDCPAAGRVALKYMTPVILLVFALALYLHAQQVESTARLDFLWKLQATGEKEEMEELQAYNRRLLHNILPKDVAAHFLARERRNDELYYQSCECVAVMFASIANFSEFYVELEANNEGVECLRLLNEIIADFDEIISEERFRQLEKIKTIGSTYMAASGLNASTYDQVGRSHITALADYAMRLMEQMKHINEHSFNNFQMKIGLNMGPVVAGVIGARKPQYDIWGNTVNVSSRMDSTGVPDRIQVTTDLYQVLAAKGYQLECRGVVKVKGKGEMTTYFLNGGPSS
mAC6 activated by Gsα (Q227L), sequence (P63092 2-394 Q227L partner): as the sequence (P63092 2-394 Q227L partner, one chain of several) above
In data set [4] the target is mAC9 activated by Gsα (Q227L) (Homo sapiens, UniProt O60503). The data set is classed as biochemical.
mAC9 activated by Gsα (Q227L), sequence (O60503 whole entry, stated change not applied): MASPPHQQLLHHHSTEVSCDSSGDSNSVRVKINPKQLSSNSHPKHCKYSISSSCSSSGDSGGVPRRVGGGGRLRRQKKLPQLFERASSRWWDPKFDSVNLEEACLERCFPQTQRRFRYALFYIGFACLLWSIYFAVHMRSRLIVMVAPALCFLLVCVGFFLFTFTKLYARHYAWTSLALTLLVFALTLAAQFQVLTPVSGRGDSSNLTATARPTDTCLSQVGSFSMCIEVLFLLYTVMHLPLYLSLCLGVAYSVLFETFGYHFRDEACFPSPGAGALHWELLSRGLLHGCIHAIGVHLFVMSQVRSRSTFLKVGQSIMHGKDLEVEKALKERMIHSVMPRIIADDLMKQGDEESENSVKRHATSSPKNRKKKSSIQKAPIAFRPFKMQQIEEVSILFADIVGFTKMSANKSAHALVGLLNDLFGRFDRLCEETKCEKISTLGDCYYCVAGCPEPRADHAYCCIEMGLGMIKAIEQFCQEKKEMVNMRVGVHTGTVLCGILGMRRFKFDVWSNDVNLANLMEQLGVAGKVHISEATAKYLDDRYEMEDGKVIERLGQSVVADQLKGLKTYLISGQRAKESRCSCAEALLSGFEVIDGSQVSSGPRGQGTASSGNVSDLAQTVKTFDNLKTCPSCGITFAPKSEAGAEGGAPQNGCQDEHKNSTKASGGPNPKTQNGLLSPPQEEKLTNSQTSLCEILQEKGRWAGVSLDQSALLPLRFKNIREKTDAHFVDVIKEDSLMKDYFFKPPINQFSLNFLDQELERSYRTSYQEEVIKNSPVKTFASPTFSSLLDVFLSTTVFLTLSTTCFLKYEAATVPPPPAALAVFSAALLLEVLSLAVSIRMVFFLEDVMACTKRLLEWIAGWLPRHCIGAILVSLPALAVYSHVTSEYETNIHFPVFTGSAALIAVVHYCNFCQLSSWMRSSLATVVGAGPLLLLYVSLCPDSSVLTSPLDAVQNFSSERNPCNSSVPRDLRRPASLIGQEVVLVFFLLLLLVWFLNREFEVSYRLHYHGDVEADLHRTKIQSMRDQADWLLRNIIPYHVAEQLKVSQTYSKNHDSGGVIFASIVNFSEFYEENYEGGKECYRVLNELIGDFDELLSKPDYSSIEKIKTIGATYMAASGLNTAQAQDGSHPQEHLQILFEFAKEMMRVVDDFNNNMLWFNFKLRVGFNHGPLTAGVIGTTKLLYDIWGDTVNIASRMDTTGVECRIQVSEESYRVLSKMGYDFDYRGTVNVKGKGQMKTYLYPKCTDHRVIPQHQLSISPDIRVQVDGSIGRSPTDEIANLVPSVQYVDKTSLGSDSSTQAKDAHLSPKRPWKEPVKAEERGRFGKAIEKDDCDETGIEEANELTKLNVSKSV
mAC9 activated by Gsα (Q227L), sequence (P63092 2-394 Q227L partner): as the sequence (P63092 2-394 Q227L partner, one chain of several) above
Data set [5] concerns the target mAC1 (Homo sapiens, UniProt Q08828). The data set is classed as biochemical.
Data set [6] addresses T1, mAC7 (Homo sapiens, UniProt P51828).
T1 sequence (P51828 1-1080): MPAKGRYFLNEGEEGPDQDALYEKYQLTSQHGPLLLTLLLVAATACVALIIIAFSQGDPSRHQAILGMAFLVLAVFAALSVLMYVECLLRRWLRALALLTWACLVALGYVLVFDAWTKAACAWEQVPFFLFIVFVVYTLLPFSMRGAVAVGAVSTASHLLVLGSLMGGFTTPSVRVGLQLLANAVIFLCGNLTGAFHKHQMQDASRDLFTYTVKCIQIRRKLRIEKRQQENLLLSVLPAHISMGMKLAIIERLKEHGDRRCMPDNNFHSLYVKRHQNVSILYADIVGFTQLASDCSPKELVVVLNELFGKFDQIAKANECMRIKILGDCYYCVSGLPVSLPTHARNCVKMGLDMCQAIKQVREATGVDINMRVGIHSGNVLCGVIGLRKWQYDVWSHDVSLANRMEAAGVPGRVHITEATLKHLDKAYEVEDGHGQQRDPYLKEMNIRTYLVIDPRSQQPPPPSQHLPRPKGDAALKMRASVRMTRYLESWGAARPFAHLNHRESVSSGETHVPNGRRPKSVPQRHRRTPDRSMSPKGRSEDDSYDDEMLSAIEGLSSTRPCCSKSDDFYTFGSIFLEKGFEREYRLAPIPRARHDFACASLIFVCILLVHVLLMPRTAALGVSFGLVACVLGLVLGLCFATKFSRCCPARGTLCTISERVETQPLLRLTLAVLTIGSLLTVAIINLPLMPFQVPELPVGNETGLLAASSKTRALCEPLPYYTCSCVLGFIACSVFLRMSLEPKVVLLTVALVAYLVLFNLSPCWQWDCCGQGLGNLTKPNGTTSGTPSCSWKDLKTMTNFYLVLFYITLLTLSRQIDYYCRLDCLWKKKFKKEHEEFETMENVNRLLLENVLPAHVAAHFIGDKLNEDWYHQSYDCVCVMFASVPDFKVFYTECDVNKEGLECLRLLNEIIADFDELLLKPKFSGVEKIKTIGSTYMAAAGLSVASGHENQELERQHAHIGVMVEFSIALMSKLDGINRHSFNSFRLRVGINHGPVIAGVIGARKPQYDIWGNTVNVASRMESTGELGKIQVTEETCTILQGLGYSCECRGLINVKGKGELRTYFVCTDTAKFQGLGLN
The data set is classed as biochemical.

Substrate in data set [7]: Nc1ncnc2c1ncn2[C@@H]1O[C@H](COP(=O)(O)OP(=O)(O)OP(=O)(O)O)[C@@H](O)[C@H]1O
The data set is classed as biochemical, Homo sapiens. Particulars: without SDPA, Gsα presence inferred from Vmax, Mg2+, pH 7.5.

mAC3 activated by Gsα (Q227L), sequence (P63092 2-394 Q227L partner, one chain of several): as the sequence (P63092 2-394 Q227L partner, one chain of several) above
mAC1, sequence (Q08828 whole entry): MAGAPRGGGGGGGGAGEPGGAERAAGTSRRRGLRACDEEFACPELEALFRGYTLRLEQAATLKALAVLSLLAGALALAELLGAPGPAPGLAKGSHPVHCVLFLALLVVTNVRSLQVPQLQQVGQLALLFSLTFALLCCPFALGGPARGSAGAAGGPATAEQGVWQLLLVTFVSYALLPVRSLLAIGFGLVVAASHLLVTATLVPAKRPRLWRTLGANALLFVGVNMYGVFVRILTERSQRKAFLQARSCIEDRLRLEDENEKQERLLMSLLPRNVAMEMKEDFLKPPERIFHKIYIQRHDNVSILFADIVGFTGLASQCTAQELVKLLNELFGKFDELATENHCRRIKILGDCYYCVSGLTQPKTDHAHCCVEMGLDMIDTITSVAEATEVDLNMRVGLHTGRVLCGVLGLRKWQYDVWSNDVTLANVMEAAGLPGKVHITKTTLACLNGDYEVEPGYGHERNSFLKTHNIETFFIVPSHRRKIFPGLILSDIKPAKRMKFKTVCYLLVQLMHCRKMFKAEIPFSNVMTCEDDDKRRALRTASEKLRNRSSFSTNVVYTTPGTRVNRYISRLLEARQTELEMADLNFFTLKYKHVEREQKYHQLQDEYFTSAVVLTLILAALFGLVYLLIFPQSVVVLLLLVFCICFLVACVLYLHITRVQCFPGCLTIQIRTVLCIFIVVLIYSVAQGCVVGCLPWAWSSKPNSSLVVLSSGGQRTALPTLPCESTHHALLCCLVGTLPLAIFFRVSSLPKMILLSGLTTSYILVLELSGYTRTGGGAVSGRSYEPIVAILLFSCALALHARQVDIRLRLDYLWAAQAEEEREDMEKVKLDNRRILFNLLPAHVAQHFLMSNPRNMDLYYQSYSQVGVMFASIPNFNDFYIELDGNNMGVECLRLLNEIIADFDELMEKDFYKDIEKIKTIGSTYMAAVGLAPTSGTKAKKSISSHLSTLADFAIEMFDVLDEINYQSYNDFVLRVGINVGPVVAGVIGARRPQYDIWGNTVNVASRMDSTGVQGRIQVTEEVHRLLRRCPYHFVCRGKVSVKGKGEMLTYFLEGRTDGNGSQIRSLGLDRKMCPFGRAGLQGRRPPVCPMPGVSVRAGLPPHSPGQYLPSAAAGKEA

Regarding `CC/C=C\C/C=C\C/C=C\C/C=C\C/C=C\C/C=C\CCC(=O)OC[C@H](COP(=O)(O)O)OC(=O)CC/C=C\C/C=C\C/C=C\C/C=C\C/C=C\C/C=C\CC` [DDPA, 1,2-didocosahexaenoyl-sn-glycero-3-phosphate (sodium salt)], a half-maximal response in data set [1] (EC50) required 1.4 µM.
With `CC/C=C\C/C=C\C/C=C\C/C=C\C/C=C\C/C=C\CCC(=O)O[C@H](COC(=O)CCCCCCCCCCCCCCC)COP(=O)(O)O` [PDPA, 1-palmitoyl-2-docosahexaenoyl-sn-glycero-3-phosphate (sodium salt)], the midpoint of the response in data set [1], the EC50, lay at 1.3 µM.
Same read-out and setting: in the case of `CCCCC/C=C\C/C=C\C/C=C\C/C=C\CCCC(=O)O[C@H](COC(=O)CCCCCCCCCCCCCCCCC)COP(=O)(O)O` [SAPA, 1-stearoyl-2-arachidonoyl-sn-glycero-3-phosphate (sodium salt)] it was 4.8 µM.
`CC/C=C\C/C=C\C/C=C\C/C=C\C/C=C\C/C=C\CCC(=O)O[C@H](COC(=O)CCCCCCCCCCCCCCCCC)COP(=O)(O)O` [SDPA, 1-stearoyl-2-docosahexaenoyl-sn-glycero-3-phosphate (sodium salt)]: the EC50 (usually the concentration at which the effect is half-maximal) in data set [1] was found to be 0.9 µM; in data set [2], 0.7 µM; in data set [3], 0.7 µM; in data set [4], 0.7 µM.
As for `CC/C=C\C/C=C\C/C=C\C/C=C\C/C=C\C/C=C\CCC(=O)O[C@H](COC(=O)CCCCCCCCCCCCCCCCC)COP(=O)(O)OC[C@H](N)C(=O)O` [SDPS, 1-stearoyl-2-docosahexaenoyl-sn-glycero-3-phospho-L-serine], the response in data set [1] was half-maximal at 1.2 µM (EC50).
For the molecule `C=C[C@@]1(C)CC(=O)[C@]2(O)[C@@]3(C)[C@@H](O)CCC(C)(C)[C@@H]3[C@H](O)[C@H](OC(C)=O)[C@@]2(C)O1` [forskolin], the EC50 in data set [5] was 2 µM; in data set [6] it was 512 µM.

B1: mAC3 activated by Gsα (Q227L) (Homo sapiens) (protein)
chain: MPRNQGFSEPEYSAEYSAEYSVSLPSDPDRGVGRTHEISVRNSGSCLCLPRFMRLTFVPESLENLYQTYFKRQRHETLLVLVVFAALFDCYVVVMCAVVFSSDKLASLAVAGIGLVLDIILFVLCKKGLLPDRVTRRVLPYVLWLLITAQIFSYLGLNFARAHAASDTVGWQVFFVFSFFITLPLSLSPIVIISVVSCVVHTLVLGVTVAQQQQEELKGMQLLREILANVFLYLCAIAVGIMSYYMADRKHRKAFLEARQSLEVKMNLEEQSQQQENLMLSILPKHVADEMLKDMKKDESQKDQQQFNTMYMYRHENVSILFADIVGFTQLSSACSAQELVKLLNELFARFDKLAAKYHQLRIKILGDCYYCICGLPDYREDHAVCSILMGLAMVEAISYVREKTKTGVDMRVGVHTGTVLGGVLGQKRWQYDVWSTDVTVANKMEAGGIPGRVHISQSTMDCLKGEFDVEPGDGGSRCDYLEEKGIETYLIIASKPEVKKTATQNGLNGSALPNGAPASSKSSSPALIETKEPNGSAHSSGSTSEKPEEQDAQADNPSFPNPRRRLRLQDLADRVVDASEDEHELNQLLNEALLERESAQVVKKRNTFLLSMRFMDPEMETRYSVEKEKQSGAAFSCSCVVLLCTALVEILIDPWLMTNYVTFMVGEILLLILTICSLAAIFPRAFPKKLVAFSTWIDRTRWARNTWAMLAIFILVMANVVDMLSCLQYYTGPSNATAGMETEGSCLENPKYYNYVAVLSLIATIMLVQVSHMVKLTLMLLVAGAVATINLYAWRPVFDEYDHKRFREHDLPMVALEQMQGFNPGLNGTDRLPLVPSKYSMTVMVFLMMLSFYYFSRHVEKLARTLFLWKIEVHDQKERVYEMRRWNEALVTNMLPEHVARHFLGSKKRDEELYSQTYDEIGVMFASLPNFADFYTEESINNGGIECLRFLNEIISDFDSLLDNPKFRVITKIKTIGSTYMAASGVTPDVNTNGFASSNKEDKSERERWQHLADLADFALAMKDTLTNINNQSFNNFMLRIGMNKGGVLAGVIGARKPHYDIWGNTVNVASRMESTGVMGNIQVVEETQVILREYGFRFVRRGPIFVKGKGELLTFFLKGRDKLATFPNGPSVTLPHQVVDNS
Consider B1, for which, in data set [7], the Km – broadly, the substrate concentration at which the rate is half of its maximum – is 100 µM.
